For five molecules, IC50 results are on record in patent US8003687B2, “Esters of compounds in the leptomycin family” (Kosan Biosciences Incorporated, priority 2005, dated 2011).

Like-named read-outs stand apart in the source and are kept apart here.

The subject of one assay is MCF-7. Briefly: inhibition of tumor cell proliferation, MCF-7. Format: cell-based, human. As to the method: (§1) The biological activity of compounds of this invention was evaluated by measuring their inhibitory effect on the proliferation of various tumor cell lines. MCF-7, A549, and SKOV-3 are human breast, lung, and ovary cancer cell lines, respectively. NCI/ADR is a multi-drug resistant breast cancer cell line. CCRF-CEM and CCRF-CEM/PTX are human leukemia cell lines, the latter being a paclitaxel-resistant subline.

In the next assay the test system is NCI/ADR. Briefly: inhibition of tumor cell proliferation, NCI/ADR. Format: cell-based. The settings on record: read-out: Tumor Cell Line (IC50, nM) NCI/ADR. How it is done:
as §1

For another assay, the system named is A549. Briefly: inhibition of tumor cell proliferation, A549. Format: cell-based, human. As to the method: as §1
In another assay the test system is SKOV-3. The assay is described as follows: inhibition of tumor cell proliferation, SKOV-3. Type of assay: cell-based, human. As to the method: as §1
The next assay concerns CCRF-CEM. The assay is described as follows: inhibition of tumor cell proliferation, CCRF-CEM. Format: cell-based, human. The settings on record: read-out: Tumor Cell Line (IC50, nM) CCRF-CEM. How it is done: as §1
In a further assay the test system is CCRF-CEM/PTX. Briefly: inhibition of tumor cell proliferation, CCRF-CEM/PTX. Type of assay: cell-based, human. The settings on record: read-out: Tumor Cell Line (IC50, nM) CCRF-CEM/PTX. How it is done:
as §1

Setting [1] is: Homo sapiens, MCF7, read-out: Tumor Cell Line (IC50, nM) MCF-7.
Setting [2] is: Homo sapiens, A549, read-out: Tumor Cell Line (IC50, nM) A549.
Setting [3] is: Homo sapiens, SK-OV-3, read-out: Tumor Cell Line (IC50, nM) SKOV-3.

As for `CCC(=C/[C@H](C)C/C=C/C(C)=C/[C@@H](C)C(=O)[C@@H](C)[C@H](O)[C@@H](C)C/C(C)=C/C(=O)OCc1ccccc1)/C=C/[C@@H]1OC(=O)C=C[C@@H]1C` [Compound 1], the IC50 in the assay on MCF-7 (setting [1]) was 3 nM; in the assay on NCI/ADR (Homo sapiens, NCI/ADR-RES) it was 38 nM; with A549 (setting [2]), 5.3 nM; with SKOV-3 (setting [3]), 17 nM; with CCRF-CEM (Homo sapiens, CCRF-CEM), 2.7 nM; in the assay with CCRF-CEM/PTX (Homo sapiens, CCRF-CEM), 4.8 nM.

Turning to `CCC(=C/[C@H](C)C/C=C/C(C)=C/[C@@H](C)C(=O)[C@@H](C)[C@H](O)[C@@H](C)C/C(C)=C/C(=O)OCC(=O)OC)/C=C/[C@@H]1OC(=O)C=C[C@@H]1C` [Compound 2], the IC50 with MCF-7 (setting [1]) stood at 0.33 nM; in the assay on NCI/ADR (Homo sapiens, NCI/ADR-RES), 5.2 nM; in the assay with A549 (setting [2]), 2.3 nM; in the assay on SKOV-3 (setting [3]), 5.3 nM; in the assay on CCRF-CEM (Homo sapiens, CCRF-CEM), 1.1 nM; in the assay on CCRF-CEM/PTX (Homo sapiens, CCRF-CEM) it was 1 nM.

Take `CCC(=C/[C@H](C)C/C=C/C(C)=C/[C@@H](C)C(=O)[C@@H](C)[C@H](O)[C@@H](C)C/C(C)=C/C(=O)OCc1cccc2cccnc12)/C=C/[C@@H]1OC(=O)C=C[C@@H]1C` [Compound 3]: the IC50 in the assay with MCF-7 (setting [1]) worked out at 3.7 nM; with NCI/ADR (Homo sapiens, NCI/ADR-RES) it was 270 nM; in the assay on A549 (setting [2]), 5.3 nM; with SKOV-3 (setting [3]) it was 24 nM; in the assay on CCRF-CEM (Homo sapiens, CCRF-CEM) it was 5.6 nM; in the assay on CCRF-CEM/PTX (Homo sapiens, CCRF-CEM), 14 nM.

As to `CCC(=C/[C@H](C)C/C=C/C(C)=C/[C@@H](C)C(=O)[C@@H](C)[C@H](O)[C@@H](C)C/C(C)=C/C(=O)O)/C=C/[C@@H]1OC(=O)C=C[C@@H]1C` [LMB, Leptomycin B, reference compound], the IC50 was 0.29 nM in the assay with MCF-7 (MCF7, human breast cancer cell line, read-out: Tumor Cell Line (IC50, nM) MCF-7); 1 nM in the assay with NCI/ADR (Homo sapiens, NCI/ADR-RES, multi-drug resistant breast cancer cell line); 0.3 nM with A549 (A549, human lung cancer cell line, read-out: Tumor Cell Line (IC50, nM) A549); 1.5 nM in the assay on SKOV-3 (SK-OV-3, human ovary cancer cell line, read-out: Tumor Cell Line (IC50, nM) SKOV-3); 0.65 nM in the assay on CCRF-CEM (CCRF-CEM, human leukemia cell line); 0.41 nM in the assay on CCRF-CEM/PTX (CCRF-CEM, human leukemia cell line, paclitaxel-resistant subline).

Consider “LMB methyl ester [Compound 4, reference compound]”, for which the IC50 with MCF-7 (human breast cancer cell line, read-out: Tumor Cell Line (IC50, nM) MCF-7) is 1.9 nM; with NCI/ADR (multi-drug resistant breast cancer cell line) it was 13.1 nM; in the assay on A549 (human lung cancer cell line, read-out: Tumor Cell Line (IC50, nM) A549) it was 2.4 nM; in the assay with SKOV-3 (human ovary cancer cell line, read-out: Tumor Cell Line (IC50, nM) SKOV-3), 8.2 nM; in the assay on CCRF-CEM (human leukemia cell line), 0.55 nM; with CCRF-CEM/PTX (human leukemia cell line, paclitaxel-resistant subline) it was 0.63 nM.
